Measurements taken from patent US20250312409A1, “METHODS OF TREATING DILATED CARDIOMYOPATHY AND HEART FAILURE” (ARIZONA BOARD OF REGENTS ON BEHALF OF THE UNIVERSITY OF …, priority 2022, published 2025).
Where “and” joins values, the source holds several entries; their conditions need not be identical. Identical values can stand only once. Non-standard residues stand in square brackets, D forms with d. Residues, ends and D or L forms follow the SMILES beside them. *: point of attachment. dPhe(4-NHCONH2) = NC(=O)Nc1ccc(C[C@@H](N)C(=O)O)cc1; Dihydroorotyl(S) = O=C1C[C@@H](C(=O)*)NC(=O)N1; dPhe(4-Cl) = N[C@H](Cc1ccc(Cl)cc1)C(=O)O; Phe(4-NH2) = Nc1ccc(C[C@H](N)C(=O)O)cc1; d2Nal = N[C@H](Cc1ccc2ccccc2c1)C(=O)O; Lys(iPr) = CC(C)NCCCC[C@H](N)C(=O)O; d3Pal = N[C@H](Cc1cccnc1)C(=O)O

Tests used:
castrated male DCM mice = test: Partial restoration of T (implanted pellets) in castrated DCM mice; type: in vivo, mouse
Procedure: Ejection fraction (EF, %) was analyzed in littermate DCM male mice (on C57BL/6J background) at 20 weeks of age corresponding to Stage D heart failure (HF) in non-castrated DCM mice. […] Dotted line: level in WT congenic group (n=8). T plasma levels analyzed by ELISA. Data analyzed by One-way-ANOVA with Tukey's multiple comparison test and represent mean+/−SEM; *=between DCM groups; **P<0.001; +=DCM groups vs. WT group: ++++P<0.0001.
FIGS. 2A-2B show lowering testosterone (T) levels increases cGMP levels in plasma (FIG. 2A) and cytosol fraction of cardiac LV extract (FIG. 2B) of male DCM mice. cGMP was analyzed in littermate mice by ELISA; data were normalized to 100 ug of total protein in extracts. Groups: at 20 weeks of age=Stage D heart failure (HF) in non-castrated DCM mice. […] Dotted line: level in WT congenic group (n=8). T plasma levels analyzed by ELISA. Data analyzed by One-way-ANOVA with Tukey's multiple comparison test and represent mean+/−SEM; *=between DCM groups; **P<0.001; +=DCM groups vs. WT group: ++++P<0.0001.
Referring to FIG. 1, T suppression in male DCM mice (low level) by surgical castration (initiated at HF stage A) improves systolic dysfunction vs. non-castrated DCM group (normal level).

male WT mice (C57BL/6J) = test: Degarelix treatment of WT control mice (EF, plasma ANP and cGMP); type: in vivo, mouse; conditions: male WT vs untreated WT group
Procedure: (§1) Treatment was initiated at 4 weeks of age when mice were at risk for DCM. The EF was analyzed at 20 weeks when DCM untreated mice progressed to Stage D HF. […] This treatment also elevated EF in males WT vs. untreated WT group (Mann-Whitney test: P<0.01).

male DCM mice [1] = test: Degarelix treatment in progressive DCM mouse model: cardiac function, remodeling, edema, HF; type: in vivo
Procedure: Ejection fraction (EF, %) (FIG. 4A), heart-to-body weight ratios, HW/BW (FIG. 4B), lung-to-body weight ratios, LW/BW, (FIG. 4C) and pleural effusion, (FIG. 4D) were analyzed in male mice with DCM and WT control mice (C57BL/6J) at 20 weeks of age corresponding to Stage D HF in non-treated DCM mice. Groups: Normal non-T-treated DCM mice (black, left bar); Low T (˜20%) DCM mice treated with degarelix, 15 mg/kg subcutaneous injection every 4 weeks (blue, right bar). Dotted line: Levels in WT congenic group (n=8). T plasma level analyzed by ELISA. Data (FIG. 4A-4C) analyzed by One-way-ANOVA with Tukey's multiple comparison test and represent mean t SEM. (FIG. 4D) analyzed by Fisher exact test.
To gain translational insights relevant to human DCM-HF, inventors analyzed the outcome of T-lowering therapy in a well-established mouse progressive DCM model on C57BL/6J strain with defined age-related HF stages (time points) for evaluation of systolic function, edema, blood sample collections, etc., in studies of male and female DCM mice. This animal model is normotensive and without kidney dysfunction, and arrhythmia, which excludes variables of blood pressure, arrhythmias, and kidney dysfunction.
as §1

[2] = test system: male and female mice with DCM and WT littermates; conditions: mouse, in vivo
humans and mice = conditions: cited from earlier work
male DCM mice [3] = test: Plasma biomarkers (ELISA) in degarelix-treated DCM mice; type: in vivo, mouse; conditions: 20 weeks of age
Procedure: Ejection fraction (EF, %) (FIG. 4A), heart-to-body weight ratios, HW/BW (FIG. 4B), lung-to-body weight ratios, LW/BW, (FIG. 4C) and pleural effusion, (FIG. 4D) were analyzed in male mice with DCM and WT control mice (C57BL/6J) at 20 weeks of age corresponding to Stage D HF in non-treated DCM mice. Groups: Normal non-T-treated DCM mice (black, left bar); Low T ( 20%) DCM mice treated with degarelix, 15 mg/kg subcutaneous injection every 4 weeks (blue, right bar). Dotted line: Levels in WT congenic group (n=8). T plasma level analyzed by ELISA. Data (FIG. 4A-4C) analyzed by One-way-ANOVA with Tukey's multiple comparison test and represent mean t SEM. (FIG. 4D) analyzed by Fisher exact test. […] Groups: at 20 weeks of age=Stage D HF in non-castrated DCM mice. Normal T (100%) non-treated DCM mice (black, left bar); Low T ( 17%) castrated or degarelix-treated DCM mice (blue, right bar); Dotted line: Levels in WT congenic group (n=6-8). T plasma level analyzed by ELISA. Data analyzed by One-way-ANOVA with Tukey's multiple comparison test and represented as mean f SEM; +++P<0.001 in DCM vs. WT group; ****P<0.0001 in castrated vs non-castrated DCM groups. […] Plasma biomarkers levels were analyzed in littermate mice with and without DCM. […] Groups: Normal T, non-treated DCM mice (black, left bar); Low T ( 20%), DCM mice treated with degarelix, 15 mg/kg subcutaneous injection every 4 weeks (blue, right bar). Dotted line: level in WT congenic group (n=6). T plasma level analyzed by ELISA. Data analyzed by One-way-ANOVA with Tukey's multiple comparison test and represent mean t SEM; *=between DCM groups: **P<0.01; DCM groups vs. WT group: ++++P<0.0001; +++P<0.001.

C[C@]12CC[C@H]3[C@@H](CCC4=CC(=O)CC[C@@]43C)[C@@H]1CC[C@@H]2O [T, testosterone]
cGMP levels in plasma (castrated male DCM mice; Reduced T vs Low T castrated DCM mice, FIG. 2A): lowered cGMP levels
cGMP levels in cardiac LV tissue (castrated male DCM mice; Reduced T vs Low T castrated DCM mice, FIG. 2B): lowered cGMP levels
T plasma level (relative to Normal T, 100%) (castrated male DCM mice; castrated DCM mice with partially restored T, 20 weeks of age, ELISA): ~60%
Ejection fraction (EF) (castrated male DCM mice; castrated DCM mice, implanted pellets for 3 months, vs castrated (Low T), FIG. 1): trend toward reduced EF

CC(=O)N[C@H](Cc1ccc2ccccc2c1)C(=O)N[C@H](Cc1ccc(Cl)cc1)C(=O)N[C@H](Cc1cccnc1)C(=O)N[C@@H](CO)C(=O)N[C@@H](Cc1ccc(NC(=O)[C@@H]2CC(=O)NC(=O)N2)cc1)C(=O)N[C@H](Cc1ccc(NC(N)=O)cc1)C(=O)N[C@@H](CC(C)C)C(=O)N[C@@H](CCCCNC(C)C)C(=O)N1CCC[C@H]1C(=O)N[C@H](C)C(N)=O [degarelix] (Ac-[d2Nal][dPhe(4-Cl)][d3Pal]S[Phe(4-NH2)](Dihydroorotyl(S))[dPhe(4-NHCONH2)]L[Lys(iPr)]P[dA]-NH2)
Ejection fraction (EF) (male WT mice (C57BL/6J); Mann-Whitney P<0.01): elevated EF
plasma ANP levels (male WT mice (C57BL/6J); P<0.001 Mann-Whitney): elevated ANP and cGMP plasma levels
plasma cGMP levels (male WT mice (C57BL/6J); P<0.001 Mann-Whitney): elevated ANP and cGMP plasma levels
heart failure (HF) (male DCM mice [1]; 20 weeks of age): attenuates HF
heart-to-body weight ratio, HW/BW (male DCM mice [1]; 20 weeks of age, FIG. 4B, P<0.001): reduces pathologically elevated heart
lung-to-body weight ratio, LW/BW (pulmonary edema) (male DCM mice [1]; 20 weeks of age, FIG. 4C, P<0.01): reduced pulmonary edema
pleural effusion (male DCM mice [1]; 20 weeks of age, FIG. 4D, P<0.05, Fisher exact test): reduction
Ejection fraction (EF) (male DCM mice [1]; treatment from 4 weeks of age, analyzed at 20 weeks (Stage D HF in untreated), vs untreated DCM, FIG. 4A): significantly improved EF
body weights [2]: did not influence
motor function [2]: did not influence
circulating T levels (humans and mice; humans and mice, reversible, without T surge and clinical side effects): to surgical castration level
muscle mass (humans and mice; in vivo): does not affect muscle mass
plasma norepinephrine levels (male DCM mice [3]; FIG. 5A): lowering norepinephrine plasma levels
plasma renin activity (PRA) levels (male DCM mice [3]; FIG. 5C): normalization of PRA levels
pro-renin receptor ((P)RR) levels (male DCM mice [3]; FIG. 5E): normalization of (P)RR levels
total renin levels in circulation (male DCM mice [3]; FIG. 5F): did not affect total renin levels
plasma ANP levels (analyzed as NT-ANP) (male DCM mice [3]; degarelix 15 mg/kg s.c. every 4 weeks, FIG. 6A): increases plasma levels of ANP
plasma cGMP levels (male DCM mice [3]; degarelix 15 mg/kg s.c. every 4 weeks, FIG. 6B): increases plasma levels
T plasma level (relative to Normal T, 100%) (male DCM mice [3]; degarelix 15 mg/kg subcutaneous every 4 weeks, ELISA): ~20% and ~17%
